From US11453697B1, “Cyclic di-nucleotide compounds as sting agonists” (Merck Sharp & Dohme Corp., priority 2015, dated 2022) come the findings set out here.

Like-named read-outs stand apart in the source and are kept apart here. Bounds are passed on as bounds.

In one experiment the target is full-length HAQ STING (Homo sapiens (Human), UniProt Q86WV6, G230A/H232R/R293Q/R71H). Description: 3H-cGAMP filtration binding assay (HAQ STING). Conditions: competition with tritiated cGAMP, HAQ STING membrane. The text has this: The ability of compounds to bind STING is quantified by the ability to compete with tritiated cGAMP ligand for human STING receptor membrane using a radioactive filter-binding assay. The binding assay employs STING receptor obtained from Hi-Five cell membranes overexpressing full-length HAQ STING prepared in-house and tritiated cGAMP ligand also purified in-house.
Sequence of full-length HAQ STING (Q86WV6 other isoform, or with tags, fused parts or gaps, stated change not applied): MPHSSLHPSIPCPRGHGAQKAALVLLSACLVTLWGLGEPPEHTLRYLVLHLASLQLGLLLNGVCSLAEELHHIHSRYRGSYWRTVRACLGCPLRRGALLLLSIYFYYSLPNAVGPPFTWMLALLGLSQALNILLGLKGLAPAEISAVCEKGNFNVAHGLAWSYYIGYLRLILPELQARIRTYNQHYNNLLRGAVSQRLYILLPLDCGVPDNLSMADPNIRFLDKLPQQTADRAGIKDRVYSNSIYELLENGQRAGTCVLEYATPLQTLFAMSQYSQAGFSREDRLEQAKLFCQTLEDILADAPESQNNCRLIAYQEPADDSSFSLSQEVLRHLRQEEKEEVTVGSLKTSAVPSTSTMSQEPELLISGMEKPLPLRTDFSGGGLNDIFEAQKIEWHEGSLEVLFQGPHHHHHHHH
The ability of compounds to bind STING is quantified by their ability to compete with tritiated cGAMP ligand for human STING receptor membrane using a radioactive filter-binding assay.
The basic HAQ STING filtration assay protocol is as follows:
Compound and membrane then preincubated for 60 min at RT to allow compound binding to equilibrate. Following equilibration, 8 nM of [^3H] c-GAMP ligand was prepared by diluting into assay buffer, and 50 uL of this working stock was then manually added to each well of the assay plate. […] The filter plates were then dried at 55° C. for 30 min using a pressurized VWR oven before 30 uL of Ultima GoldF scintillate was added to each well. Tritium levels for each reaction well were then measured using a PerkinElmer TopCount plate reader.
After normalization to controls, the percent activity for each compound concentration was calculated by measuring the amount of remaining radioactivity. The plot of percent activity versus the log of compound concentration was fit with a 4-parameter dose response equation to calculate EC50 values.

The test system of experiment [1] is IFN-β secretion in THP1 cells. Description: IFN-β secretion in THP1 cell culture (5 h). The format is cell-based, human. The method, boiled down: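 THP1 cells incubated with compound for 5 h at 37 °C, 5% CO2, and secreted IFN-β in supernatant quantified by AlphaLISA. Percent effect normalised to 30 uM cGAMP positive control and 0.3% DMSO. EC50 from 4-parameter fit.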

[2] abbreviates: EC50 (nM), 3H-cGAMP filtration binding assay for HAQ STING.
Where [3] appears, read: read-out: EC50 (nM), 3H-cGAMP filtration binding assay for HAQ STING.
Where [4] appears, read: IFN-β secretion in THP1 cell culture, 5 h, compound at 30 μM, percent activation relative to 2′3′-cGAMP.

Turning to `Nc1nc2c(ncn2[C@@H]2O[C@@H]3COP(O)(=S)O[C@H]4C[C@H](n5cnc6c(=O)[nH]cnc65)O[C@@H]4COP(O)(=S)O[C@@H]2[C@@H]3F)c(=O)[nH]1` (single isomer, unassigned) [Example 305], the EC50 at full-length HAQ STING (setting [2]) amounted to 326 nM. For the same compound, the “% Effect at 30 μM relative to 2′3′-cGAMP” value in experiment [1] is listed as 50%.
The compound `Nc1nc2c(ncn2[C@@H]2O[C@@H]3COP(O)(=S)O[C@H]4C[C@H](n5cnc6c(=O)[nH]cnc65)O[C@@H]4COP(O)(=S)O[C@@H]2[C@@H]3F)c(=O)[nH]1` (single isomer, unassigned) [Example 306] had an EC50 at full-length HAQ STING (setting [2]) of 3.6 nM. In experiment [1], the “% Effect at 30 μM relative to 2′3′-cGAMP” value is listed as 153%.
Taken in the same sequence, the figures for `Nc1nc2c(ncn2[C@@H]2O[C@@H]3CO[P@@](=O)(S)O[C@H]4C[C@H](n5cnc6c(=O)[nH]cnc65)O[C@@H]4CO[P@@](=O)(S)O[C@@H]2[C@@H]3F)c(=O)[nH]1` (single isomer, unassigned) [Example 307] were under 1 nM and 174%.
As to `Nc1nc2c(ncn2[C@@H]2O[C@@H]3COP(=O)(S)O[C@H]4[C@H](F)[C@H](n5cnc6c(=O)[nH]cnc65)O[C@@H]4COP(=O)(S)O[C@@H]2C3)c(=O)[nH]1` (single isomer, unassigned) [Example 317], the EC50 at full-length HAQ STING (setting [3]) is under 1 nM. Besides, in experiment [1] (setting [4]), the “% Effect at 30 μM relative to 2′3′-cGAMP” value was 107%.
Take `Nc1nc2c(ncn2[C@@H]2O[C@@H]3COP(=O)(S)O[C@H]4[C@H](F)[C@H](n5cnc6c(=O)[nH]cnc65)O[C@@H]4COP(=O)(S)O[C@@H]2C3)c(=O)[nH]1` (single isomer, unassigned) [Example 318]: the EC50 on full-length HAQ STING (setting [3]) is 6.2 nM. Further, the “% Effect at 30 μM relative to 2′3′-cGAMP” value in experiment [1] (setting [4]) came out at 150%.
`Nc1nc2c(ncn2[C@@H]2S[C@@H]3COP(=O)(O)OC4C(O)[C@H](n5cnc6c(N)ncnc65)O[C@@H]4COP(=O)(O)OC2C3O)c(=O)[nH]1` (stereo in doubt) [Example 11, (5R,7R,8R,12aR,14R,15R,15aS,16S)-7-(2-amino-6-oxo-1,6-dihydro-9H-purin-9-yl)-14-(6-amino-9H-purin-9-yl)-15,16-dihydroxyoctahydro-12H-5,8-methanofuro[3,2-l][1,3,9,11,6,2,10] tetraoxathiadiphosphacyclotetradecine-2,10-diolate 2,10-dioxide]: the EC50 on full-length HAQ STING (setting [3]) is 1.2 nM. The “% Effect at 30 μM relative to 2′3′-cGAMP” value in experiment [1] (setting [4]) stood at 169%.
The corresponding values for `C#C[C@@]12COP(=O)(O)OC3C(O)[C@@H](COP(=O)(O)OC1C(O)[C@H](n1cnc4c(N)ncnc41)O2)O[C@H]3n1cnc2c(=O)[nH]c(N)nc21` (stereo in doubt) [Example 12, (5R,7R,8R,12aR,14R,15R,15aS,16R)-7-(2-amino-6-oxo-1,6-dihydro-9H-purin-9-yl)-14-(6-amino-9H-purin-9-yl)-12a-ethynyl-15,16-dihydroxyoctahydro-12H-5,8-methanofuro[3,2-l][1,3,6,9,11,2,10] pentaoxadiphosphacyclotetradecine-2,10-diolate 2,10-dioxide] are under 1 nM and 89%.
The corresponding values for `Nc1nc2c(ncn2[C@@H]2O[C@@H]3COP(=O)(O)OC4C(O)[C@H](c5cnn6c(=O)[nH]cnc56)O[C@@H]4COP(=O)(O)OC2C3O)c(=O)[nH]1` (stereo in doubt) [Example 321, 8-[(5R,7R,8R,12aR,14S,15S,15aS,16R)-7-(2-amino-6-oxo-1,6-dihydro-9H-purin-9-yl)-2,10,15,16-tetrahydroxy-2,10-dioxidooctahydro-12H-5,8-methanofuro[3,2-l][1,3,6,9,11,2,10]pentaoxadiphosphacyclotetradecin-14-yl]pyrazolo[1,5-a][1,3,5]triazin-4(3H)-one] are 112 nM and 36%.
With `Nc1nc2c(ncn2[C@@H]2O[C@@H]3COP(=O)(O)O[C@H]4[C@H](Cl)[C@H](n5cnc6c(N)ncnc65)O[C@@H]4COP(=O)(O)O[C@@H]2[C@@H]3O)c(=O)[nH]1` [Example 15, 2-amino-9-[(5R,7R,8R,12aR,14R,15S,15aR,16R)-14-(6-amino-9H-purin-9-yl)-15-chloro-2,10,16-trihydroxy-2,10-dioxidooctahydro-12H-5,8-methanofuro[3,2-l][1,3,6,9,11,2,10]pentaoxadiphosphacyclotetradecin-7-yl]-1,9-dihydro-6H-purin-6-one], the EC50 on full-length HAQ STING (setting [3]) is 378 nM. For the same compound, the “% Effect at 30 μM relative to 2′3′-cGAMP” value in experiment [1] (setting [4]) is given as 39%.
As for `C[C@H]1OP(=O)(O)O[C@@H]2C[C@@H](COP(=O)(O)O[C@H]3[C@@H](O)[C@H](n4cnc5c(N)ncnc54)O[C@@H]31)O[C@H]2n1cnc2c(=O)[nH]c(N)nc21` [Example 16, 2-amino-9-[(5S,7R,8R,12R,12aR,14R,15R,15aS)-14-(6-amino-9H-purin-9-yl)-2,10,15-trihydroxy-12-methyl-2,10-dioxidooctahydro-12H-5,8-methanofuro[3,2-l][1,3,6,9,11,2,10]pentaoxadiphosphacyclotetradecin-7-yl]-1,9-dihydro-6H-purin-6-one], the EC50 on full-length HAQ STING (setting [3]) was 12.4 nM. Further, the “% Effect at 30 μM relative to 2′3′-cGAMP” value in experiment [1] (setting [4]) came out at 57%.
Taken in the same sequence, the figures for `Nc1nc2c(ncn2[C@@H]2O[C@@]34COC3[C@@H]2OP(=O)(O)OC[C@H]2O[C@@H](n3cnc5c(N)ncnc53)[C@@H](O)C2OP(=O)(O)OC4)c(=O)[nH]1` (stereo partly drawn) [Example 17, 2-amino-9-[(2aR,5S,6aS,7R,8R,9aR,12S,14R,14aS,15R)-8-(6-amino-9H-purin-9-yl)-5,7,12-trihydroxy-5,12-dioxidohexahydro-6aH-2a,14-(epoxymethano)furo[3,2-d]oxeto[2,3-k][1,3,7,9,2,8]tetraoxadiphosphacyclotridecin-15(2H,3H)-yl]-1,9-dihydro-6H-purin-6-one] were 121 nM and 81%.
Taken in the same sequence, the figures for `C[C@@H]1OP(=O)(O)O[C@@H]2C[C@@H](COP(=O)(O)O[C@H]3[C@@H](O)[C@H](n4cnc5c(N)ncnc54)O[C@H]31)O[C@H]2n1cnc2c(=O)[nH]c(N)nc21` [Example 18, 2-amino-9-[(5S,7R,8R,12S,12aS,14R,15R,15aS)-14-(6-amino-9H-purin-9-yl)-2,10,15-trihydroxy-12-methyl-2,10-dioxidooctahydro-12H-5,8-methanofuro[3,2-l][1,3,6,9,11,2,10]pentaoxadiphosphacyclotetradecin-7-yl]-1,9-dihydro-6H-purin-6-one] were 53.9 nM and 74%.
Take `Nc1nc2c(ccn2[C@@H]2O[C@@H]3COP(=O)(O)O[C@H]4[C@@H](O)[C@H](n5cnc6c(N)ncnc65)O[C@@H]4COP(=O)(O)O[C@@H]2[C@@H]3O)c(=O)[nH]1` [Example 30, 2-amino-7-[(5R,7R,8R,12aR,14R,15R,15aS,16R)-14-(6-amino-9H-purin-9-yl)-2,10,15,16-tetrahydroxy-2,10-dioxidooctahydro-12H-5,8-methanofuro[3,2-l][1,3,6,9,11,2,10]pentaoxadiphosphacyclotetradecin-7-yl]-3,7-dihydro-4H-pyrrolo[2,3-d] pyrimidin-4-one]: the EC50 at full-length HAQ STING (setting [3]) is 91 nM. The “% Effect at 30 μM relative to 2′3′-cGAMP” value in experiment [1] (setting [4]) was determined as 131%.
With `CNc1ncnc2c1ncn2[C@@H]1O[C@@H]2COP(=O)(O)O[C@@H]3[C@H](O)[C@@H](COP(=O)(O)O[C@H]2[C@H]1O)O[C@H]3n1cnc2c(=O)[nH]c(N)nc21` [Example 31, 2-amino-9-{(5R,7R,8R,12aR,14R,15R,15aS,16R)-2,10,15,16-tetrahydroxy-14-[6-(methylamino)-9H-purin-9-yl]-2,10-dioxidooctahydro-12H-5,8-methanofuro [3,2-l][1,3,6,9,11,2,10]pentaoxadiphosphacyclotetradecin-7-yl}-1,9-dihydro-6H-purin-6-one], the EC50 on full-length HAQ STING (setting [3]) was 94 nM. Further, the “% Effect at 30 μM relative to 2′3′-cGAMP” value in experiment [1] (setting [4]) stood at 100%.
Taken in the same sequence, the figures for `Nc1nc2c(ncn2[C@@H]2O[C@@H]3COP(=O)(O)O[C@H]4[C@@H](O)[C@H](n5cc(F)c6c(N)ncnc65)O[C@@H]4COP(=O)(O)O[C@@H]2[C@@H]3O)c(=O)[nH]1` [Example 33, 2-amino-9-[(5R,7R,8R,12aR,14R,15R,15aS,16R)-14-(4-amino-5-fluoro-7H-pyrrolo[2,3-d]pyrimidin-7-yl)-2,10,15,16-tetrahydroxy-2,10-dioxidooctahydro-12H-5,8-methanofuro[3,2-l][1,3,6,9,11,2,10]pentaoxadiphosphacyclotetradecin-7-yl]-1,9-dihydro-6H-purin-6-one] were 11.9 nM and 200%.
